According to paper PMC7827406, “Structure–Activity Relationship (SAR) Study of Spautin-1 to Entail the Discovery of Novel NEK4 Inhibitors” (International Journal of Molecular Sciences, 2021):
Like-named read-outs stand apart in the source and are kept apart here.

Key:
Experiment in all cases: biochemical
Set-up in all cases: Eurofins KinaseProfiler full panel at Km ATP, residual kinase activity (%) relative to DMSO
[1] = target: DAPK2(h) (Homo sapiens, UniProt Q9UIK4)
Summary of the method: (§1)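 Radiometric kinase activity assays were run with ATP at Km and compounds at 10 µM, and remaining activity (%) was reported. A separate competitive binding screen measured DNA-tagged kinase displaced from immobilized active-site ligands by qPCR, giving percent kinase still bound at 10 µM compound in DMSO.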

[2] = target: DDR1(h) (Homo sapiens, UniProt Q08345)
Summary of the method: as §1

[3] = target: FGFR1(h) (Homo sapiens, UniProt P11362)
Summary of the method: as §1

[4] = target: T1, MARK4(h) (Homo sapiens, UniProt Q96L34)
T1 sequence (Q96L34 1-752): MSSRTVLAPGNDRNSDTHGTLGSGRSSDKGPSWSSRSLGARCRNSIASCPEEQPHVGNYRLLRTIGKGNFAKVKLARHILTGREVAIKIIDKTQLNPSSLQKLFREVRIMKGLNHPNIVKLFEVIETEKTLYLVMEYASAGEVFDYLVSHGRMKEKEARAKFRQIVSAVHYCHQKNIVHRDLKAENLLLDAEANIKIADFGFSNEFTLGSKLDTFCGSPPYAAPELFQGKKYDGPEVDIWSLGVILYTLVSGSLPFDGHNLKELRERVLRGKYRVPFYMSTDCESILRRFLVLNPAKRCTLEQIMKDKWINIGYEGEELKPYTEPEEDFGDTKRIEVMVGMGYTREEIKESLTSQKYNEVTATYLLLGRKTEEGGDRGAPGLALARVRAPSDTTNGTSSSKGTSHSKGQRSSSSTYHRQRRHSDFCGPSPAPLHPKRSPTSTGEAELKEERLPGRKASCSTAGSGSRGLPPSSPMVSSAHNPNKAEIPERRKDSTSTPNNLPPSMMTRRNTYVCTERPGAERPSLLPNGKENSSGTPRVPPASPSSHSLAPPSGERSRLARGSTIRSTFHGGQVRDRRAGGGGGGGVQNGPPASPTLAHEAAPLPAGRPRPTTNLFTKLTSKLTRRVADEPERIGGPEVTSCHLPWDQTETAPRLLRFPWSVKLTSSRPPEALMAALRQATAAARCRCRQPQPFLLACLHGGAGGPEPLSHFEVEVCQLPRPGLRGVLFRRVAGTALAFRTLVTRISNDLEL
Summary of the method: as §1

[5] = target: T2, MLK1(h) (Homo sapiens, UniProt P80192)
T2 construct: gene MAP3K9
Summary of the method: as §1

[6] = target: T3, PI3 Kinase (p110a/p85a)(m) (Mus musculus, UniProt P42337)
T3 construct: gene Pik3ca
Summary of the method: as §1

[7] = target: T4, PKCθ(h) (Homo sapiens, UniProt Q04759)
T4 construct: gene PRKCQ
Summary of the method: as §1

[8] = target: STK39(h) (Homo sapiens, UniProt Q9UEW8)
Summary of the method: as §1

[9] = target: Src(T341M)(h) (Homo sapiens, UniProt P12931, T341M)
Summary of the method: as §1

[10] = target: T5, TRB2(h) (Homo sapiens, UniProt Q92519)
T5 construct: gene TRIB2
T5 sequence (Q92519 1-343): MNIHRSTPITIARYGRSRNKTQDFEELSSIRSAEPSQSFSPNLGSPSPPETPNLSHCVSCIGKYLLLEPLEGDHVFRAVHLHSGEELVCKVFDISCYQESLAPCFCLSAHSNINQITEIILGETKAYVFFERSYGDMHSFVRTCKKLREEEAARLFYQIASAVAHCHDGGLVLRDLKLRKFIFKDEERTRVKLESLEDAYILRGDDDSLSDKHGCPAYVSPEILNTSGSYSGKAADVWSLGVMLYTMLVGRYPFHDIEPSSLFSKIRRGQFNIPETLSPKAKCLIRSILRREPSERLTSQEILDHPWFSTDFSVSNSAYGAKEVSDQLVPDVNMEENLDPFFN
Summary of the method: as §1

[11] = target: WNK4(h) (Homo sapiens, UniProt Q96J92)
Summary of the method: as §1

[12] = target: T6, Wee1B(h) (Homo sapiens, UniProt P0C1S8)
T6 construct: gene WEE2
Summary of the method: as §1

[13] = read-out: Residual activity (%) Spautin-1 5aa
[14] = read-out: Residual activity (%) 5as
[15] = read-out: Residual activity (%) 5at
[16] = read-out: Residual activity (%) 5ay

Sequence of FGFR1(h) (P11362 whole entry): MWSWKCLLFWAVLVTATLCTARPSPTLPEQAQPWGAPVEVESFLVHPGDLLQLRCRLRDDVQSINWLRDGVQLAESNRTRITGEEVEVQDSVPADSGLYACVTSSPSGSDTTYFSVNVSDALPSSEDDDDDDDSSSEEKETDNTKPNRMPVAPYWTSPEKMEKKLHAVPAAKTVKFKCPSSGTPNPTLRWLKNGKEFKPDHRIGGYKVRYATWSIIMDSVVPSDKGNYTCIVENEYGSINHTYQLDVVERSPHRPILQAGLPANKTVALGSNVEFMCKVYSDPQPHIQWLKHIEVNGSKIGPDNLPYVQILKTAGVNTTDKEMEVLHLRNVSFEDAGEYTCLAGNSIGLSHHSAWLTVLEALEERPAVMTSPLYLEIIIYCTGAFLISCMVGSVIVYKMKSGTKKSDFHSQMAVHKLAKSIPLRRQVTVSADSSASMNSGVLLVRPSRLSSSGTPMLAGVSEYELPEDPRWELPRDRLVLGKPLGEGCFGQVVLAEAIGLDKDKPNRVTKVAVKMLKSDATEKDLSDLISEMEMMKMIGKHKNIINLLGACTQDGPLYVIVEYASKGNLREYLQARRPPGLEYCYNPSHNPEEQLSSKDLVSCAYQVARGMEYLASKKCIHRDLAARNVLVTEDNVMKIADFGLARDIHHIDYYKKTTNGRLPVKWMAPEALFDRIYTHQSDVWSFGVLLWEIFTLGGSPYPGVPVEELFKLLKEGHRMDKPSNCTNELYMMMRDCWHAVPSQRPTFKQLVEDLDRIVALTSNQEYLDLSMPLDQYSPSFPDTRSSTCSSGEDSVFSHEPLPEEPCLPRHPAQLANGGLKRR
Sequence of Src(T341M)(h) (P12931 whole entry T341M): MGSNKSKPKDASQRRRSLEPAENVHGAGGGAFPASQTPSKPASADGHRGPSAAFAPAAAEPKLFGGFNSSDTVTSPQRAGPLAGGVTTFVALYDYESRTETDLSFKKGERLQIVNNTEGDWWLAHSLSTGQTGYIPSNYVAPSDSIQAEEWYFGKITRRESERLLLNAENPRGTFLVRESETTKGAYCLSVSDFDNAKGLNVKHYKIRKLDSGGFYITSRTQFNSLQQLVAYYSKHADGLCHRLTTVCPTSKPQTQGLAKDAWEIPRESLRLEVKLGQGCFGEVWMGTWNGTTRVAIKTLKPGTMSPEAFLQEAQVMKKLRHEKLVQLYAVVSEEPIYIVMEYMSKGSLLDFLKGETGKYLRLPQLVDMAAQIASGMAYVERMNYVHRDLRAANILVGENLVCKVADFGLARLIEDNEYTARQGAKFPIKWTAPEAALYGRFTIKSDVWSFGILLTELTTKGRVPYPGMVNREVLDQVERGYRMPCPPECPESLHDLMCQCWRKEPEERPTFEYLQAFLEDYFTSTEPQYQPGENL
Sequence of DDR1(h) (Q08345 whole entry): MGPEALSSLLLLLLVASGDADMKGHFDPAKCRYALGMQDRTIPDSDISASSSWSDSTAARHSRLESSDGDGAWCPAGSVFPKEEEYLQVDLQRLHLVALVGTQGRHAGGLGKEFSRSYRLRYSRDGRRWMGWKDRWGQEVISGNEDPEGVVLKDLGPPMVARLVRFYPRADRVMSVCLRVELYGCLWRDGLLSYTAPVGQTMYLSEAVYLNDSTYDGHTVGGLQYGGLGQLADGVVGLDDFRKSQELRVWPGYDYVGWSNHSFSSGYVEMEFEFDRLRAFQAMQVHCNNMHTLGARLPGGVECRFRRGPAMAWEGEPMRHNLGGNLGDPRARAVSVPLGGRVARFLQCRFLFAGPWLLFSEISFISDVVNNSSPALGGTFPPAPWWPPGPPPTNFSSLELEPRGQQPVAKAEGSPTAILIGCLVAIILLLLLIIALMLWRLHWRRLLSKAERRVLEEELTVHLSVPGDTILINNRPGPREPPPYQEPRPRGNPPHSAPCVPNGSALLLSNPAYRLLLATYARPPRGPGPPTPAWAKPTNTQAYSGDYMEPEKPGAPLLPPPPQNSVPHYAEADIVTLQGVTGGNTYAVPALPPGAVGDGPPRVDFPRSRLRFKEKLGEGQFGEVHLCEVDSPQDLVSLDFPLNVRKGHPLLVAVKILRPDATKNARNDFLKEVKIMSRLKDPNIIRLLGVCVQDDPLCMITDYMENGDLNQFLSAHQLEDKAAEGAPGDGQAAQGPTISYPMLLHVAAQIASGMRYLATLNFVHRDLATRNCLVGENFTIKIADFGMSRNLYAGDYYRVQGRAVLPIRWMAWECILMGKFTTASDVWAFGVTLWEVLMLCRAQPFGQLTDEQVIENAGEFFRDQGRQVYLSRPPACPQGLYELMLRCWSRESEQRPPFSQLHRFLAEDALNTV
Sequence of DAPK2(h) (Q9UIK4 whole entry): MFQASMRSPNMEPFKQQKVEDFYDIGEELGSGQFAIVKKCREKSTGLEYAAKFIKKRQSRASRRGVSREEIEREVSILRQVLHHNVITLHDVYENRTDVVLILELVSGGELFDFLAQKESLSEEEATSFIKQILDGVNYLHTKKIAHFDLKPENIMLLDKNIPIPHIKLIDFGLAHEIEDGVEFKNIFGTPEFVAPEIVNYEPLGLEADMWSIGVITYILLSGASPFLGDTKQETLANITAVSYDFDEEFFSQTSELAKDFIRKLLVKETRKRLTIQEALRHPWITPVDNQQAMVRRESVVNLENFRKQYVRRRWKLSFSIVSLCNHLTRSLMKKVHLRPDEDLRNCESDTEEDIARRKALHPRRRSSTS
T6 sequence (P0C1S8 whole entry): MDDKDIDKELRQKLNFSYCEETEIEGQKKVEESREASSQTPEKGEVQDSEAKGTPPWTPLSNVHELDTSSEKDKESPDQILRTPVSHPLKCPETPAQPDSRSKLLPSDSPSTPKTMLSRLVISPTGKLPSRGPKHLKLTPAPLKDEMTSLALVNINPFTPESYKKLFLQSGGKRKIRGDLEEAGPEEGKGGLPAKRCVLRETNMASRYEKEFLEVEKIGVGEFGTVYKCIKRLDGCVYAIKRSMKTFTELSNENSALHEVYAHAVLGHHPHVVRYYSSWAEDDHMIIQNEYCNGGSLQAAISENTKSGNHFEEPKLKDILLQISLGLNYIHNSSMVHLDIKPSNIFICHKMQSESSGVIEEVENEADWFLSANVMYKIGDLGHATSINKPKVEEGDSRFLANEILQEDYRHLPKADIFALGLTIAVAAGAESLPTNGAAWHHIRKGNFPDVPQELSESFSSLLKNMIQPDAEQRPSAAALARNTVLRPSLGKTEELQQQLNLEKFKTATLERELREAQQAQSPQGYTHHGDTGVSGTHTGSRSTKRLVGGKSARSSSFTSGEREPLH
Sequence of WNK4(h) (Q96J92 whole entry): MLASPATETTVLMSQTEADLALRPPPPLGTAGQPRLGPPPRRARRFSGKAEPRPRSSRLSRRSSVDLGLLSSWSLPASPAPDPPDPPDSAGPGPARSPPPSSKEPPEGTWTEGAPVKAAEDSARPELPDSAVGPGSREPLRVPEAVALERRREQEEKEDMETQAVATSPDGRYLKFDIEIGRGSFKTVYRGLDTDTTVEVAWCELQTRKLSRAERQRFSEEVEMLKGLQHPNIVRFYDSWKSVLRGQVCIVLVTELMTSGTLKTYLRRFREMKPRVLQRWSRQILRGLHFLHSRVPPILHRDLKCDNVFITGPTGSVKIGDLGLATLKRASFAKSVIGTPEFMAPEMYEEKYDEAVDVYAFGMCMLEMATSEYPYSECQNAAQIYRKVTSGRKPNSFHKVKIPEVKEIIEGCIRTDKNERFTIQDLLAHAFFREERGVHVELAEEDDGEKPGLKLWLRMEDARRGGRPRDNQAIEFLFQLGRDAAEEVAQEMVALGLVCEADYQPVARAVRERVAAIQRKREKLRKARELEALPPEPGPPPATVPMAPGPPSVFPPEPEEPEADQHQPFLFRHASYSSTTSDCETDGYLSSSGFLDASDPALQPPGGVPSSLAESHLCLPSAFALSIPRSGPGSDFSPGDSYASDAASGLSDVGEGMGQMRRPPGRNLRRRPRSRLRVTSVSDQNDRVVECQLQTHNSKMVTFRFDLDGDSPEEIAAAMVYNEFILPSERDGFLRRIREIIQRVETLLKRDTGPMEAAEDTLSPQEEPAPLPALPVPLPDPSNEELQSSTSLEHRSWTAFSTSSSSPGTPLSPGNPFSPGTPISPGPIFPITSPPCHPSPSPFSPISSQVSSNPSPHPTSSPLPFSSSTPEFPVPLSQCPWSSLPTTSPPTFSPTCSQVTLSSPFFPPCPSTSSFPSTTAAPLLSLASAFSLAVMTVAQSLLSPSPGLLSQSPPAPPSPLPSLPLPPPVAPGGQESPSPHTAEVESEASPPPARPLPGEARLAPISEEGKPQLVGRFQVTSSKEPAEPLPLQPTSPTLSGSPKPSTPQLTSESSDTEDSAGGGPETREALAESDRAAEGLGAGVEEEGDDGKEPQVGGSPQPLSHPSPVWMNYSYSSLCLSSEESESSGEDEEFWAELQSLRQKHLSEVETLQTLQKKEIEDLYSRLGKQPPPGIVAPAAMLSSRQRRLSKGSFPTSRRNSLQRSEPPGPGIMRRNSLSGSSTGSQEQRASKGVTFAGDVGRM

What does the source list for `Fc1ccc(CNc2ncnc3ccc(F)cc23)cc1` [5aa, 6-Fluoro-N-(4-fluorobenzyl)-4-Quinazolinamine]?
remaining activity at 10 µM [1, 13]: 94%; remaining activity at 10 µM [2, 13]: 65%; remaining activity at 10 µM [3, 13]: 91%; remaining activity at 10 µM [4, 13]: 107%; remaining activity at 10 µM [5, 13]: 89%; remaining activity at 10 µM [6, 13]: 86%; remaining activity at 10 µM [7, 13]: 80%; remaining activity at 10 µM [8, 13]: 75%; remaining activity at 10 µM [9, 13]: 94%; remaining activity at 10 µM [10, 13]: 69%; remaining activity at 10 µM [11, 13]: 105%; remaining activity at 10 µM [12, 13]: 95%

What does the source list for `Fc1ccc(CCNc2ncnc3ccc(F)cc23)cc1` [5as, 6-Fluoro-N-[2-(4-Fluorophenyl)Ethyl]-4-Quinazolinamine]?
remaining activity at 10 µM [1, 14]: 100%; remaining activity at 10 µM [2, 14]: 29%; remaining activity at 10 µM [3, 14]: 105%; remaining activity at 10 µM [4, 14]: 104%; remaining activity at 10 µM [5, 14]: 77%; remaining activity at 10 µM [6, 14]: 83%; remaining activity at 10 µM [7, 14]: 100%; remaining activity at 10 µM [8, 14]: 100%; remaining activity at 10 µM [9, 14]: 103%; remaining activity at 10 µM [10, 14]: 65%; remaining activity at 10 µM [11, 14]: 94%; remaining activity at 10 µM [12, 14]: 99%

For `Fc1ccc2ncnc(NCCc3ccc(Cl)cc3)c2c1` [5at, N-[2-(4-Chlorophenyl)Ethyl]-6-Fluoro-4-Quinazolinamine], which remaining activity at 10 µM [1, 15] is on record?
The remaining activity at 10 µM was 101%.

What about the remaining activity at 10 µM [2, 15] of the same molecule?
Its remaining activity at 10 µM is 39%.

What about the remaining activity at 10 µM [3, 15] of the same molecule?
The remaining activity at 10 µM was 123%.

And the remaining activity at 10 µM [4, 15]?
The remaining activity at 10 µM was 105%.

What about the remaining activity at 10 µM [5, 15] of the same molecule?
Its remaining activity at 10 µM is 76%.

What about the remaining activity at 10 µM [6, 15] of the same molecule?
Its remaining activity at 10 µM is 82%.

What about the remaining activity at 10 µM [7, 15] of the same molecule?
Its remaining activity at 10 µM is 90%.

And the remaining activity at 10 µM [8, 15]?
The remaining activity at 10 µM was 91%.

And the remaining activity at 10 µM [9, 15]?
Its remaining activity at 10 µM is 83%.

What about the remaining activity at 10 µM [10, 15] of the same molecule?
Its remaining activity at 10 µM is 60%.

And the remaining activity at 10 µM [11, 15]?
Its remaining activity at 10 µM is 92%.

And the remaining activity at 10 µM [12, 15]?
The remaining activity at 10 µM was 100%.

With `COc1ccc2ncnc(Nc3cccc(F)c3)c2c1` [5ay, N-(3-Fluorophenyl)-6-Methoxy-4-Quinazolinamine] as the molecule, how does the remaining activity at 10 µM [1, 16] read?
Its remaining activity at 10 µM is 91%.

And the remaining activity at 10 µM [2, 16]?
Its remaining activity at 10 µM is 7%.

And the remaining activity at 10 µM [3, 16]?
The remaining activity at 10 µM was 81%.

And the remaining activity at 10 µM [4, 16]?
Its remaining activity at 10 µM is 100%.

And the remaining activity at 10 µM [5, 16]?
Its remaining activity at 10 µM is 68%.

What about the remaining activity at 10 µM [6, 16] of the same molecule?
Its remaining activity at 10 µM is 84%.

And the remaining activity at 10 µM [7, 16]?
The remaining activity at 10 µM was 117%.

And the remaining activity at 10 µM [8, 16]?
Its remaining activity at 10 µM is 114%.

And the remaining activity at 10 µM [9, 16]?
The remaining activity at 10 µM was 96%.

What about the remaining activity at 10 µM [10, 16] of the same molecule?
The remaining activity at 10 µM was 31%.

What about the remaining activity at 10 µM [11, 16] of the same molecule?
Its remaining activity at 10 µM is 100%.

And the remaining activity at 10 µM [12, 16]?
Its remaining activity at 10 µM is 106%.
